These molecules were tested against T1, EGFR (L858R) (Homo sapiens, UniProt P00533, L858R) (assay: KinaseSeeker competition binding assay, rabbit reticulocyte lysate (Method A)). Details: 7-point curve, duplicate.
T1 construct: made in house; host or cells: cell-free translation in rabbit reticulocyte lysate
Method: Method A: Rabbit Reticulocyte Lysate Assay Design: KinaseSeeker is a homogeneous competition binding assay where the displacement of an active site dependent probe by an inhibitor is measured by a change in luminescence signal. Luminescence readout translates into a highly sensitive and robust assay with low background and minimal interference from test compounds.
10 mM stock solutions of test compounds were serially diluted in DMSO to make assay stocks. Prior to initiating IC50 determinations, the test compounds were evaluated for false positive against split-luciferase.
Each test compound was screened in duplicate against target kinase i.e. EGFR (L858R) at 7 different concentrations. For kinase assays, Cfluc-kinase was translated along with Fos-Nfluc using a cell-free system (rabbit reticulocyte lysate) at 30° C. for 90 min. […] 80 uL of luciferin assay reagent was added to each solution and luminescence was immediately measured on a luminometer.
The % Inhibition and % Activity Remaining was calculated using the following equation: % Inhibition=[(ALUControl=ALUSample)/ALUControl]×100 % Activity Remaining=100−% Inhibition
The % Activity was plotted against compound concentration and the IC50 was determined for each compound using a 7-point curve (Jester, B. W.; et. al. J. Am. Chem. Soc. 2010, 132, 11727-11735. Jester, B. W.; et. al. J. Med. Chem. 2012, 55, 1526-1537). […]

T1 sequence (P00533 25-1210 L858R): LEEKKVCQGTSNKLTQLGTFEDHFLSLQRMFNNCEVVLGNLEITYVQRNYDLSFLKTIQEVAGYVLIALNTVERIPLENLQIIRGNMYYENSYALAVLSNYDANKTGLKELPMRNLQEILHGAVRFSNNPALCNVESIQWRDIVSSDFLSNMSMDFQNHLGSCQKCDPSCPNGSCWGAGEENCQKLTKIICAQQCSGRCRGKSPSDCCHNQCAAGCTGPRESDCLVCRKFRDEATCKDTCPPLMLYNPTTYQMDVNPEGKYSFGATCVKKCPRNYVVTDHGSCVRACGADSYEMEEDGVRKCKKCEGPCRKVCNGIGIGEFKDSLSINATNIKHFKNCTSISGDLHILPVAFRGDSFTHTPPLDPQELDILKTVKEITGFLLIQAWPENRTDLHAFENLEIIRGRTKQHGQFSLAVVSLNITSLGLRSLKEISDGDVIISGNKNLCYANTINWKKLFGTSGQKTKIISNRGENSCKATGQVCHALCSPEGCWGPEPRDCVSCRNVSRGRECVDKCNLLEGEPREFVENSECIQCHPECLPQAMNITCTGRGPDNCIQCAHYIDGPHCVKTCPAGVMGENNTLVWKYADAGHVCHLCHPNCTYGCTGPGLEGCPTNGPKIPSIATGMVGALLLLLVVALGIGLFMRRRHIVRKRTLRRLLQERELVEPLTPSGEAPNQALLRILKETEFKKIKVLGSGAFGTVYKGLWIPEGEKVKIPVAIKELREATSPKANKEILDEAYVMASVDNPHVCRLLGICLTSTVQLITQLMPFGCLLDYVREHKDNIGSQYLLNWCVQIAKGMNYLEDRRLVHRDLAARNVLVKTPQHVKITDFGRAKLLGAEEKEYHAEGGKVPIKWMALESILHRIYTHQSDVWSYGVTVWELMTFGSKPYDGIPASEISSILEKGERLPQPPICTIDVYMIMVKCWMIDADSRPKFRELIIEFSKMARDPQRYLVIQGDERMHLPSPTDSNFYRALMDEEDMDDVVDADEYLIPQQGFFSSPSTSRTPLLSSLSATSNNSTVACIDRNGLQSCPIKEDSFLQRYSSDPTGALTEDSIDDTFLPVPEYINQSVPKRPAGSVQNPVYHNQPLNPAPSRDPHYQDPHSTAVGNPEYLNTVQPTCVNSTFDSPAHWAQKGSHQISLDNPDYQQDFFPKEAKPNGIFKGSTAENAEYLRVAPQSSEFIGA

Compared with `O=C(C[C@@H]1CCSS1)Nc1c(Nc2ccc(OCc3cccc(F)c3)c(Cl)c2)ncnc1OC[C@H](O)CO` [Example 24, N-(4-((3-chloro-4-((3-fluorobenzyl)oxy)phenyl)amino)-6-((R)-2,3-dihydroxypropoxy)pyrimidin-5-yl)-2-((R)-1,2-dithiolan-3-yl)acetamide], `CCOc1ncnc(Nc2ccc(OCc3cccc(F)c3)c(Cl)c2)c1NC(=O)CC1CCSS1` (centres unmarked) [Example 20] is lower in IC50: > 10000 nM for the first, 1000 to 10000 nM for the second.

What follows are molecules tested against T2, EGFR T790M (Homo sapiens, UniProt P00533, T790M) (assay: KINOMEscan competition binding kinase assay, Kd (Method B)). Details: Method B (Kd values).
T2 construct: made in house; host or cells: T7 phage in E. coli (BL21-derived) or HEK-293 cells
T2 sequence (P00533 25-1210 T790M): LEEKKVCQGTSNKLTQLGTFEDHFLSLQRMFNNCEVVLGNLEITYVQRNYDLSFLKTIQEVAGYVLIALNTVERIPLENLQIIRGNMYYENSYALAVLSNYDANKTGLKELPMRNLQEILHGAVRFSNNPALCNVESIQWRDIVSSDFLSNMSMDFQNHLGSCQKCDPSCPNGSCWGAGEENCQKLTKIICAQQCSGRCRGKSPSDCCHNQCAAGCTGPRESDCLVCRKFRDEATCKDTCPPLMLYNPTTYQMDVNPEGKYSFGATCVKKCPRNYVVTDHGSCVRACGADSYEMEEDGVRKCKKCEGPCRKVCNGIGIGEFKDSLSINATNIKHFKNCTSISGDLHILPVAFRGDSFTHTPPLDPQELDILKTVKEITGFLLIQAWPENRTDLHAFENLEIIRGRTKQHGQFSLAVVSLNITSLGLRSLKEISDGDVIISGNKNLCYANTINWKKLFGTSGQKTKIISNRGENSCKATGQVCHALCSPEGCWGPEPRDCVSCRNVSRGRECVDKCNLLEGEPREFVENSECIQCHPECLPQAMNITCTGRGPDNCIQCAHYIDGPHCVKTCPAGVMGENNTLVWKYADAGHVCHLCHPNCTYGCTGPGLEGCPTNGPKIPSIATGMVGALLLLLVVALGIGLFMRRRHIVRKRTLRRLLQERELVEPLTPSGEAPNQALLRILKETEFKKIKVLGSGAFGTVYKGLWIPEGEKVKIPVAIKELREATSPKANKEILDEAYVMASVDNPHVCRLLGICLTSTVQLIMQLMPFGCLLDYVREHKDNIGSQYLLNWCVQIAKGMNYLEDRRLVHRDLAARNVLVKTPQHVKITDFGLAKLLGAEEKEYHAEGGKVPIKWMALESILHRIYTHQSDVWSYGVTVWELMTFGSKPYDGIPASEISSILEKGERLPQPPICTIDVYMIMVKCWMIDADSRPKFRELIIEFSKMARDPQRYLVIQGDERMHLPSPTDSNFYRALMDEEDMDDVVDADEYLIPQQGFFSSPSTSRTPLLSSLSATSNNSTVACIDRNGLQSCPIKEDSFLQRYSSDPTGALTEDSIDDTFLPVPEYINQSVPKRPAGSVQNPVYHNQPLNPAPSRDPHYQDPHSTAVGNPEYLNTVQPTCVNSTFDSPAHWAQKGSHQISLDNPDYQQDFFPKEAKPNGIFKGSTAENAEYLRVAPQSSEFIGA
Method: The assay is performed by combining three components: DNA-tagged kinase; immobilized ligand; and a test compound. The ability of the test compound to compete with the immobilized ligand is measured via quantitative PCR of the DNA tag.
For most assays, kinase-tagged T7 phage strains were prepared in an E. coli host derived from the BL21 strain. E. coli were grown to log-phase and infected with T7 phage and incubated with shaking at 32° C. until lysis. The lysates were centrifuged and filtered to remove cell debris. The remaining kinases were produced in HEK-293 cells and subsequently tagged with DNA for qPCR detection. Streptavidin-coated magnetic beads were treated with biotinylated small molecule ligands for 30 minutes at room temperature to generate affinity resins for kinase assays. The liganded beads were blocked with excess biotin and washed with blocking buffer (SeaBlock (Pierce), 1% BSA, 0.05% Tween 20, 1 mM DTT) to remove unbound ligand and to reduce non-specific binding. […] All reactions were performed in polystyrene 96-well plates in a final volume of 0.135 ml. […] The kinase concentration in the eluates was measured by qPCR.

Compared with `COc1cc(N2CCN(C)CC2)ccc1Nc1ncc(Cl)c(Nc2cccc(NC(=O)C(CSC(C)=O)CSC(C)=O)c2)n1` [Example 40, S,S′-(2-((3-((5-chloro-2-((2-methoxy-4-(4-methylpiperazin-1-yl)phenyl)amino)pyrimidin-4-yl)amino)phenyl)carbamoyl)propane-1,3-diyl)diethanethioate], `COc1cc(N2CCN(C)CC2)ccc1Nc1ncc(Cl)c(Oc2cccc(NC(=O)C(CSC(C)=O)CSC(C)=O)c2)n1` [Example 35, S,S′-(2-((3-((5-chloro-2-((2-methoxy-4-(4-methylpiperazin-1-yl)phenyl)amino)pyrimidin-4-yl)oxy)phenyl)carbamoyl)propane-1,3-diyl)diethanethioate] is higher in Kd: 100 to 999 nM for the first, > 10000 nM for the second. The first binds more tightly here.

First: COc1cc(N2CCN(C)CC2)ccc1Nc1ncc(Cl)c(Nc2cccc(NC(=O)C3CSSC3)c2)n1 [Example 41, N-(3-((5-chloro-2-((2-methoxy-4-(4-methylpiperazin-1-yl)phenyl)amino)pyrimidin-4-yl)amino)phenyl)-1,2-dithiolane-4-carboxamide]
Second: COc1cc(N2CCN(C)CC2)ccc1Nc1ncc(Cl)c(Oc2cccc(NC(=O)C3CSSC3)c2)n1 [Example 36, N-(3-((5-chloro-2-((2-methoxy-4-(4-methylpiperazin-1-yl)phenyl)amino)pyrimidin-4-yl)oxy)phenyl)-1,2-dithiolane-4-carboxamide]
The Kd of the first is lower: 1 to 99 nM for the first, 1000 to 10000 nM for the second.

`COc1cc(N(C)CCN(C)C)c(NC(=O)C(CSC(C)=O)CSC(C)=O)cc1Nc1nccc(-c2cn(C)c3ccccc23)n1` [Example 28, S,S′-(2-((2-((2-(dimethylamino)ethyl)(methyl)amino)-4-methoxy-5-((4-(1-methyl-1H-indol-3-yl)pyrimidin-2-yl)amino)phenyl)carbamoyl)propane-1,3-diyl)diethanethioate] and `COc1cc(N(C)CCN(C)C)c(NC(=O)C2CSSC2)cc1Nc1nccc(-c2cn(C)c3ccccc23)n1` [Example 29, N-(2-((2-(dimethylamino)ethyl)(methyl)amino)-4-methoxy-5-((4-(1-methyl-1H-indol-3-yl)pyrimidin-2-yl)amino)phenyl)-1,2-dithiolane-4-carboxamide] fall in the same range of Kd: 100 to 999 nM for the first, 100 to 999 nM for the second.
